Reference: ChEMBL document CHEMBL4041480, “Natural and synthetic bioactive inhibitors of glycogen synthase kinase” (Eur J Med Chem, 2017)

Experiments:
[1] = molecular target: T1, Glycogen synthase kinase-3 beta (Homo sapiens, UniProt P49841)
[2] = molecular target: T1, Glycogen synthase kinase-3 beta; remark: listed apart in the source
[3] = molecular target: T1, Glycogen synthase kinase-3 beta; remark: listed apart in the source
Description: Inhibition of full length recombinant human His-tagged GSK3beta expressed in baculovirus expression system using Ser/Thr 9 peptide substrate by Z'-LYTE assay

[4] = molecular target: T1, Glycogen synthase kinase-3 beta; remark: listed apart in the source
Description: Inhibition of GST-tagged GSK3beta (unknown origin) expressed in Escherichia coli BL21-CodonPlus (DE3) by Z'-LYTE assay

T1 sequence (P49841 whole entry): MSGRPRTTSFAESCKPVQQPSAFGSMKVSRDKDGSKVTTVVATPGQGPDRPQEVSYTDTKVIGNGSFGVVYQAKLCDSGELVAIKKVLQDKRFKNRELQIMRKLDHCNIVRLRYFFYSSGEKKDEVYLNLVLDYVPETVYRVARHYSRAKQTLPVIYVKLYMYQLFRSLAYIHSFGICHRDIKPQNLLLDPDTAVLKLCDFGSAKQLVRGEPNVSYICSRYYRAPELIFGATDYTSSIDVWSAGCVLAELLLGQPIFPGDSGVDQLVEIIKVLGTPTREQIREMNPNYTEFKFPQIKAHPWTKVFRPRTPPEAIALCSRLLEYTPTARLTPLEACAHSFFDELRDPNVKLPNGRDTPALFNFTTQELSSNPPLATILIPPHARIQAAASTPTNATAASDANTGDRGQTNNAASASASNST

[Zn] showed an IC50 [1] of 15 µM.
N=C1N[C@H]2c3c([nH]c(Br)c3Br)C(=O)C3CCC[C@@]32N1 (stereo not given in full) gave an IC50 [1] of 3 µM.
For O=c1[nH]nc2c(NCCc3ccncc3)cc(Cl)cn12, the IC50 [2] was 0.111 µM.
O=C1NC(=O)C(c2cn(CCC3N=CC=N3)c3ccccc23)=C1c1noc2ccccc12 gave an IC50 [3] of 0.00073 µM.
With Cn1cc(C2=C(c3nn(CCCN4CCOCC4)c4ncccc34)C(=O)NC2=O)c2ccccc21 the IC50 [4] was 0.34 µM.
